By IC50 is commonly meant the concentration needed to halve the response being measured.

Where two headings read alike, the source gives them in different places. Where only a bound is given, the exact number is not on record here.

Holding throughout (format): cell-based
Experiment [1] concerns S1T (cell strain originated from an ATL patient). The experiment can be described thus: Growth inhibition of S1T cells, 4-day culture, MTT method. As to conditions: for IC50: S1T cells, 4 days; for Selectivity to ATL cell (S1T) in words: S1T versus MOLT-4; for Selectivity index on the S1T cell (SI = IC50 for MOLT-4/IC50 for S1T): screen with S1T and MOLT-4. The method, then:
(§1) In the presence of various agents, S1T (cell strain originated from an ATL patient), MT-2 (HTLV-1 infected cell strain), and as controls, MOLT-4 (acute lymphoblastic leukemia cell strain), CEM (acute lymphoblastic leukemia cell strain), HL-60 (acute promyelocytic leukemia cell strain), and Jurkat (acute T-cell leukemia cell strain) were cultivated for 4 days, and the growth inhibitory effects of compounds on the respective cells were evaluated by the MIT method.
(§2) In the presence of various concentrations of agents, SIT (cell strain originated from an ATL patient) and as a control MOLT-4 (acute lymphoblastic leukemia cell strain) were cultivated for 4 days, and the growth inhibitory effects of the compounds on the respective cells were evaluated by the MTT method.
For orientation: Tetrazolium assays rely on reduction of a dye to a coloured formazan, in cell work by metabolically active cells.

Experiment [2] has as its system MOLT-4 (acute lymphoblastic leukemia cell strain). The experiment can be described thus: Growth inhibition of MOLT-4 control cells, 4-day culture, MTT method. As to conditions: MOLT-4 cells, 4 days. The method, then: as §1, §2
The subject of experiment [3] is MT-2 (HTLV-1 infected cell strain). In words: Growth inhibition of MT-2 cells, 4-day culture. The following applies: 4 days. The method, then:
(§3) In the presence of various agents, […] (cell strain originated from an ATL patient), MT-2 (HTLV-1 infected cell strain), and as controls, MOLT-4 (acute lymphoblastic leukemia cell strain), CEM (acute lymphoblastic leukemia cell strain), HL-60 (acute promyelocytic leukemia cell strain), and Jurkat (acute T-cell leukemia cell strain) were cultivated for 4 days, and the growth inhibitory effects of compounds on the respective cells were evaluated by the MIT method.

The subject of experiment [4] is CEM (acute lymphoblastic leukemia cell strain). In words: Growth inhibition of CEM control cells, 4-day culture. The following applies: 4 days. The method, then: as §3
The test system of experiment [5] is HL-60 (acute promyelocytic leukemia cell strain). The experiment can be described thus: Growth inhibition of HL-60 control cells, 4-day culture. As to conditions: HL-60 cells, 4 days. The method, then:
as §3

The subject of experiment [6] is Jurkat (acute T-cell leukemia cell strain). In words: Growth inhibition of Jurkat control cells, 4-day culture. As to conditions: 4 days. The method, then: as §3
Setting [7] is: Homo sapiens, 96 h, Table 1, concentration to inhibit cell growth by 50%, read-out: IC50 (μM) S1T.
The mark [8] stands for this setting: Table 1, selectivity index = IC50 for MOLT-4/IC50 for S1T.
[9] abbreviates: Homo sapiens, 96 h, Table 1, concentration to inhibit cell growth by 50%, read-out: IC50 (μM) MOLT-4.
The mark [10] stands for this setting: Homo sapiens, 96 h, Table 2, MTT, mean of at least 2 experiments, read-out: IC50 (μM) S1T cell.
Where [11] appears, read: Table 2, selectivity to ATL cell (IC50 for MOLT-4/IC50 for S1T).
The mark [12] stands for this setting: Homo sapiens, 96 h, Table 2, MTT, mean of at least 2 experiments, read-out: IC50 (μM) MOLT-4 cell.
The mark [13] stands for this setting: Table 2, MTT, mean of at least 2 experiments, read-out: IC50 (μM) S1T cell.
The mark [14] stands for this setting: Table 2, MTT, mean of at least 2 experiments, read-out: IC50 (μM) MOLT-4 cell.

Turning to `O=C([O-])c1ccccc1O.[Na+]` [Sodium salicylate, reference compound], the figures for the IC50 in experiment [1] (setting [7]) and in experiment [2] (setting [9]) were 1570 µM and 1320 µM, respectively. Moreover, the “Selectivity to ATL cell (S1T) in words” value in experiment [1] is “no selectivity to S1T was recognized”. This compound had an SI in experiment [1] (setting [8]) of 0.84.

Take `COc1cc2c(cc1C(C)=O)C(C)(C)CCC2(C)C` [TMN(OCH3) (COCH3)]: the figures for the IC50 in experiment [1] (setting [7]) and in experiment [2] (setting [9]) were 7 µM and 11.9 µM, respectively. In experiment [1], the “Selectivity to ATL cell (S1T) in words” value is on record as “higher selectivity to an ATL cell than other derivatives with analogous structures”. Besides, the SI in experiment [1] (setting [8]) is given as 1.7.

`CC1(C)CCC(C)(C)c2cc3c(=O)ccoc3cc21` [Agent N, 6,7,8,9-tetrahydro-6,6,9,9-tetramethyl-4H-naphtho[2,3-b]pyran-4-one]: the IC50 in experiment [1] (setting [10]) was 1.9 ± 0.2 µM; in experiment [2] (setting [12]) it was 14.5 ± 1.9 µM. In addition, the SI in experiment [1] (setting [11]) came to 7.6.

For the compound `CC1(C)CCC(C)(C)c2cc3c(cc21)OCCC3=O` [Agent O, 2,3,6,7,8,9-hexahydro-6,6,9,9-tetramethyl-4H-naphtho[2,3-b]pyran-4-one], the values for the IC50 in experiment [1] (setting [10]) and in experiment [2] (setting [12]) were 6.7 ± 0.9 µM and 13.6 ± 2.6 µM, respectively. The compound also came in with an SI in experiment [1] (setting [11]) of 2.0.

On to `CC1(C)CCC(C)(C)c2ccccc21` [TMN, reference compound], for which the IC50 in experiment [1] (setting [7]) and in experiment [2] (setting [9]) was over 100 µM throughout.

As to `CC1(C)CCC(C)(C)c2cc(C(=O)O)c(O)cc21` [TNBAA, reference compound], the figures for the IC50 in experiment [1] (setting [7]) and in experiment [2] (setting [9]) were 29.7 µM and 44.4 µM, respectively. This compound came in with an SI in experiment [1] (setting [8]) of 1.49.

With `CC(=O)c1ccc2c(c1)C(C)(C)CCC2(C)C` [TMN(COCH3), 5,6,7,8-tetrahydro-5,5,8,8-tetramethyl-2-naphthyl methyl ketone], the IC50 was found to be 6.9 µM in experiment [1] (setting [7]) and 66 µM in experiment [2] (setting [9]). Besides, the “Selectivity to ATL cell (S1T) in words” value in experiment [1] is on record as “higher selectivity to an ATL cell than other derivatives with analogous structures”. This compound displayed an SI in experiment [1] (setting [8]) of 9.6.

As for `CC(C)C(=O)c1ccc2c(c1)C(C)(C)CCC2(C)C` [Agent F, 5,6,7,8-tetrahydro-5,5,8,8-tetramethyl-2-naphthyl isopropyl ketone], the results for the IC50 in experiment [1] (setting [10]) and in experiment [2] (setting [12]) were 3.8 ± 2.1 µM and 34.6 ± 1.5 µM, respectively. Also, the SI in experiment [1] (setting [11]) is listed as 9.1.

With `CC1(C)CCC(C)(C)c2cc(C(=O)c3ccccc3)c(O)cc21` [Agent D, 5,6,7,8-tetrahydro-3-hydroxy-5,5,8,8-tetramethyl-2-naphthyl phenyl ketone], the half-inhibitory concentration (IC50) stood at 15.2 ± 2.3 µM in experiment [1] (setting [10]) and 28.3 ± 0.7 µM in experiment [2] (setting [12]). Besides, the SI in experiment [1] (setting [11]) amounted to 1.9.

On to `CC1(C)CCC(C)(C)c2cc(C(=O)c3ccccc3)ccc21` [Agent H, 5,6,7,8-tetrahydro-5,5,8,8-tetramethyl-2-naphthyl phenyl ketone], for which the results for the IC50 in experiment [1] (setting [10]) and in experiment [2] (setting [12]) were 7 ± 0.9 µM and 11.8 ± 2.2 µM, respectively. In experiment [1] (setting [11]), this compound gave an SI of 1.7.

In the case of `CC(=S)c1cc2c(cc1O)C(C)(C)CCC2(C)C` [Agent G, 5,6,7,8-tetrahydro-3-hydroxy-5,5,8,8-tetramethyl-2-naphthyl ethanethione], the IC50 in experiment [1] (setting [13]) is 6.9 ± 2.3 µM; in experiment [2] (setting [14]), 36.4 ± 2.1 µM. This compound also yielded an SI in experiment [1] (setting [11]) of 5.3.

Regarding `CC1(C)CCC(C)(C)c2cc(C(N)=O)ccc21` [Agent K, 5,6,7,8-tetrahydro-5,5,8,8-tetramethyl-2-naphthyl amide], the IC50 in experiment [1] (setting [13]) was 37 ± 2.1 µM; in experiment [2] (setting [14]), 39.4 ± 10.4 µM. Further, in experiment [1] (setting [11]), the SI came to 1.1.

As for `CCC(=O)c1cc2c(cc1O)C(C)(C)CCC2(C)C` [Agent A, 5,6,7,8-tetrahydro-3-hydroxy-5,5,8,8-tetramethyl-2-naphthyl ethyl ketone], the IC50 was 4.7 ± 1.3 µM in experiment [1] (setting [10]) and 32.3 ± 5.4 µM in experiment [2] (setting [12]). In experiment [1] (setting [11]), the SI worked out at 6.9.

As for `CN(C)C=CC(=O)c1cc2c(cc1O)C(C)(C)CCC2(C)C` [Agent M, 5,6,7,8-tetrahydro-3-hydroxy-5,5,8,8-tetramethyl-2-naphthyl 13-(N,N-dimethylamino)vinyl ketone], the IC50 turned out to be 2.1 ± 0.1 µM in experiment [1] (setting [13]) and 9.3 ± 0.9 µM in experiment [2] (setting [14]). The SI in experiment [1] (setting [11]) was found to be 4.4.

Take `CC(C)C(=O)c1cc2c(cc1O)C(C)(C)CCC2(C)C` [Agent B, 5,6,7,8-tetrahydro-3-hydroxy-5,5,8,8-tetramethyl-2-naphthyl isopropyl ketone]: the IC50 is 6 ± 0.7 µM in experiment [1] (setting [10]) and 31.9 ± 0.2 µM in experiment [2] (setting [12]). Besides, the SI in experiment [1] (setting [11]) came out at 5.3.

Consider `CC(=O)c1cc2c(cc1O)C(C)(C)CCC2(C)C` [TMNAA, 5,6,7,8-tetrahydro-3-hydroxy-5,5,8,8-tetramethyl-2-naphthyl methyl ketone], for which, in experiment [1] (FIG. 1), the “Concentration at which growth of an ATL cell is selectively inhibited in comparison to the control” value was at least 4 µM. Also, the IC50 in experiment [1] (setting [7]) was 5 µM; in experiment [2] (setting [9]), 53.8 µM. The “Selectivity to ATL cell (S1T) in words” value in experiment [1] was “higher selectivity to an ATL cell than other derivatives with analogous structures”. Also, the SI in experiment [1] (setting [8]) was determined as 10.8. The results for the “Selectivity index on the S1T cell (SI = IC50 for MOLT-4/IC50 for S1T)” value in experiment [1] and in experiment [1] (listed as compound of the formula III) were at least 10 and “above 10”, respectively. The “Growth inhibitory effect on MT-2” value in experiment [3] is “specific inhibitory effect solely on MT-2”. In experiment [4], the “Growth inhibitory effect on CEM” value is “specific inhibitory effect solely on MT-2”. The “Growth inhibitory effect on HL-60” value in experiment [5] was “specific inhibitory effect solely on MT-2”. In experiment [6], the “Growth inhibitory effect on Jurkat” value is on record as “specific inhibitory effect solely on MT-2”.

Take `CCC(=O)c1ccc2c(c1)C(C)(C)CCC2(C)C` [Agent E, 5,6,7,8-tetrahydro-5,5,8,8-tetramethyl-2-naphthyl ethyl ketone]: the results for the IC50 in experiment [1] (setting [10]) and in experiment [2] (setting [12]) were 3.3 ± 1 µM and 21.5 ± 2.2 µM, respectively. The same compound had an SI in experiment [1] (setting [11]) of 6.5.

Turning to `CC(C)(C)C(=O)c1cc2c(cc1O)C(C)(C)CCC2(C)C` [Agent C, 5,6,7,8-tetrahydro-3-hydroxy-5,5,8,8-tetramethyl-2-naphthyl tert-butyl ketone], the IC50 is 41.5 ± 0.8 µM in experiment [1] (setting [10]) and 43.2 ± 2.4 µM in experiment [2] (setting [12]). In experiment [1] (setting [11]), this compound registered an SI of 1.0.

Consider `CC1(C)CCC(C)(C)c2cc(C(=O)O)ccc21` [TMBA, reference compound], for which the IC50 is over 100 µM in experiment [1] (setting [7]) and 61.1 µM in experiment [2] (setting [9]). In addition, the SI in experiment [1] (setting [8]) is given as under 0.61.

On to `CON(C)C(=O)c1ccc2c(c1)C(C)(C)CCC2(C)C` [Agent J, 5,6,7,8-tetrahydro-5,5,8,8-tetramethyl-2-naphthyl-N-methoxy-N-methylamide], for which the IC50 amounted to 12.6 ± 2.1 µM in experiment [1] (setting [13]) and 9.9 µM in experiment [2] (setting [14]). Besides, the SI in experiment [1] (setting [11]) is under 1.0.

(Values after patent US8765719B2, “Therapeutic drug for adult T-cell leukemia” (Kagoshima University, priority 2008, dated 2014).)
